{
  "source": "paper PMC4398321",
  "about": "“Epoxide based inhibitors of the hepatitis C virus non-structural 2 autoprotease” (Antiviral Research, 2015)",
  "key": {"[1]": {"molecular_target": "T1, JFH1 NS2–3 (NS2 autoprotease) (Hepatitis C virus genotype 2a, UniProt Q99IB8)", "T1 construct": "(JFH1 polyprotein residues 906–1209, J4 residues 904–1206); His tag (N); made in house; host or cells: E. coli BL21 (DE3) pLysS, pET23a", "T1 sequence (Q99IB8 906-1209)": "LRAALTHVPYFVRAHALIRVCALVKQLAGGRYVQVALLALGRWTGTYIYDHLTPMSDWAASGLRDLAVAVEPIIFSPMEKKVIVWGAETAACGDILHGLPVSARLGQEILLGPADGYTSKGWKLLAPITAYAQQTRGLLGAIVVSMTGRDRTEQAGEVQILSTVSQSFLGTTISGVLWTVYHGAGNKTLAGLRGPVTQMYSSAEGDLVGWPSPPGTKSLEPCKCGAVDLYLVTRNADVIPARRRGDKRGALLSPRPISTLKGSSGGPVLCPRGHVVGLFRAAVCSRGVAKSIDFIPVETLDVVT", "experiment": "NS2–3 auto-processing (refolding) assay, JFH1", "type": "biochemical, Hepatitis C virus genotype 2a isolate JFH1", "settings": "for EC50: JFH1 NS2–3 refolding reaction, 10-point dose response, NS3-FLAG product quantified by western blot", "description": "NS2–3 at 20 μM in 6 M GdnHCl was diluted 1:100 into Refolding buffer (30% glycerol, 0.5% CHAPS, 250 mM NaCl, 3 mM cysteine, 50 μM ZnCl2, 10 mM DTT, 50 mM HEPES–NaOH, pH 7.0) and incubated 16 h RT. Compounds (133 × final concentration in DMSO) were diluted into Refolding buffer before the addition of NS2–3 to yield required final concentrations. Reactions were halted by the addition of ¼ volume 4 × Laemmli buffer (200 mM Tris–HCl pH 6.8, 40% glycerol, 8% SDS, 0.08% bromophenol blue, 20 mM DTT) and analysed by 15% SDS–PAGE and western blot using M2 anti-FLAG monoclonal antibody (Sigma Aldrich) followed by IRDye 680RD Donkey anti-Mouse secondary (LI-COR Biosciences). Imaging and analysis was performed using Odyssey imager (LI-COR Biosciences). Intensity of the 20 kDa proteolysis product (NS3-FLAG) was quantified to calculate 50% effective concentration (EC50) using Prism 6 (GraphPad).\nTo assess the ability of a small molecule to inhibit NS2 protease activity, an in vitro auto-processing assay was employed. A NS2–NS3 precursor protein (NS2–3) comprising the catalytic C-terminal domain of NS2 and the N-terminal protease domain of NS3 (JFH1 polyprotein residues 906–1209, J4 residues 904–1206) flanked by an N-terminal His tag and C-terminal FLAG tag was bacterially expressed and purified from inclusion bodies under denaturing conditions by immobilised metal ion affinity chromatography (IMAC). Upon dilution into Refolding buffer, NS2–3 forms significant secondary structure ([Foster et al., 2010]) allowing the autoprotease to become active. This can be monitored by western blot analysis of NS2–3 refolding reactions with an anti-FLAG antibody to reveal 35 kDa precursor NS2–3-FLAG and 20 kDa NS3-FLAG, one of the proteolysis products. Quantification of the proteolysis product was used as a relative measure of NS2 autoprotease activity."}, "[2]": {"experiment": "Cell viability endpoint assay (Thiazolyl Blue Tetrazolium Bromide)", "type": "cell-based", "settings": "human, Huh7 cells (hepatoma cell line); 72 h incubation, 11-point dose response", "method": "(§1) Cellular metabolism was quantified by 2 h incubation in 1 mM Thiazolyl Blue Tetrazolium Bromide (Sigma Aldrich) before crystals were suspended in 100 μl DMSO and absorbance at 570 nm measured using an infinite F50 platereader (Tecan). Data was normalised to DMSO control. CC50 was calculated using Prism 6 (GraphPad).\n(§2) In other systems, the requirement of epoxide-based inhibitors to form a transient interaction with the protease before becoming covalently linked allows them greater selectivity and makes them more amenable to in vivo applications ([Powers et al., 2002]). To explore the potential for bis-amido based epoxide warheads to exert an inhibitory effect within a HCV model system, compounds 1–10 and cerulenin were tested for cytotoxic effects by calculating CC50 from 72 h incubation in a hepatoma cell line capable of supporting HCV replication (Supplementary Fig. 2). Of the compounds showing significant activity in vitro only 1 and 7 exerted no significant cytotoxicity up to 100 μM (Table 1)."}, "[3]": {"molecular_target": "T1, JFH1 NS2–3 (NS2 autoprotease)", "design": "method as in Pieroni et al., 1997; Thibeault et al., 2001", "settings": "ref Pieroni et al., 1997; Thibeault et al., 2001; cited from earlier work"}, "SGR-JFH1-NS2-5B": {"tested_on": "SGR-JFH1-NS2-5B", "experiment": "SGR firefly luciferase assay, NS2-dependent JFH1 replicon", "type": "cell-based, Hepatitis C virus genotype 2a isolate JFH1", "settings": "Telaprevir 150 nM, 48 h", "method": "(§3) Stable cell lines harbouring SGR (Supplementary material) were maintained in Dulbecco’s modified Eagle’s medium (DMEM; Sigma) supplemented with 10% foetal bovine serum (FBS), 100 IU penicillin ml^−1, 100 μg streptomycin ml^−1, 1% non-essential amino acids and 300 μg/ml G418 (Sigma) in a humidified incubator at 37 °C in 5% CO2. Cells were seeded at a density of 2 × 10^4 cells/well in a 96 well plate. After 16 h media was removed and replaced with media supplemented with the indicated concentrations of compounds with standard DMSO at 0.25%. Plates were incubated in the absence of G418 for a further 48 h.\n(§4) Luciferase activity was quantified by addition of 30 μl Passive Lysis Buffer (PLB: Promega) and addition of 40 μl LarI reagent (Promega) using a BMG Labtech plate reader with light emission recorded over 6 s. Data was normalised to DMSO control. Statistical significance was determined using the Student’s t test. […]\n(§5) Constructs for HCV SGRs of the genotype 1b Con1 (BM4-5) and genotype 2a JFH1 isolates containing a firefly luciferase – neomycin phosphotransferase fusion protein (ffLuc - NPT) have been previously reported (Wyles et al., 2009, Wyles et al., 2007), into which the relevant NS2 coding sequence was introduced. […] Transcripts were purified by phenol/chloroform extraction and quantified by absorbance at 260 nm. […]"}, "SGR-JFH1-NS3-5B": {"tested_on": "SGR-JFH1-NS3-5B", "experiment": "SGR firefly luciferase assay, NS2-independent JFH1 replicon", "type": "cell-based, Hepatitis C virus genotype 2a isolate JFH1", "settings": "Telaprevir 150 nM, 48 h", "method": "as §3, §4, §5"}, "[4]": {"tested_on": "SGR-JFH1-NS2-5B cell line", "experiment": "Cellular metabolism of SGR-JFH1-NS2-5B cell line", "type": "cell-based", "settings": "Telaprevir 150 nM, 48 h", "method": "as §3, §1"}, "[5]": {"tested_on": "SGR-JFH1-NS3-5B cell line", "experiment": "Cellular metabolism of SGR-JFH1-NS3-5B cell line", "type": "cell-based", "settings": "Telaprevir 150 nM, 48 h", "method": "as §3, §1"}, "Huh7 cells": {"tested_on": "Huh7 cells", "experiment": "Cell viability endpoint assay (Thiazolyl Blue Tetrazolium Bromide)", "type": "cell-based", "settings": "72 h incubation, 11-point dose response", "method": "as §1, §2"}},
  "data": [
    {"smiles": "C/C=C/C/C=C/CCC(=O)[C@H]1O[C@H]1C(N)=O", "note": "[Cerulenin]", "values": [
      {"measurement": "EC50", "setting": "[1]", "result": "> 300", "unit": "µM"},
      {"measurement": "Activity against the NS2 autoprotease (in words)", "setting": "[1]; JFH1 NS2–3 refolding, dose response", "result": "no activity"},
      {"measurement": "CC50 at 72 h", "setting": "[2]", "result": 31.9, "unit": "µM"}
    ]},
    {"smiles": "CC(C)C[C@H](NC(=O)[C@H]1O[C@@H]1C(=O)O)C(=O)NCCCCN=C(N)N", "note": "[Compound E64]", "values": [
      {"measurement": "Inhibition of NS2 autoprotease", "setting": "[1]; E64 300 μM", "result": "not inhibited"},
      {"measurement": "Activity against the NS2 autoprotease", "setting": "[3]", "result": "inactive"}
    ]},
    {"smiles": "CCC[C@H](NC(=O)[C@@H]1[C@H]2CCC[C@H]2CN1C(=O)[C@@H](NC(=O)[C@@H](NC(=O)c1cnccn1)C1CCCCC1)C(C)(C)C)C(=O)C(=O)NC1CC1", "note": "[Telaprevir]", "values": [
      {"measurement": "Luciferase activity", "setting": "SGR-JFH1-NS2-5B", "result": "comparable reduction"},
      {"measurement": "Luciferase activity", "setting": "SGR-JFH1-NS3-5B", "result": "comparable reduction"},
      {"measurement": "Cellular metabolism", "setting": "[4]", "result": "no effect"},
      {"measurement": "Cellular metabolism", "setting": "[5]", "result": "no effect"}
    ]},
    {"smiles": "O=C(O)CN(CCN(CC(=O)O)CC(=O)O)CC(=O)O", "note": "[EDTA]", "values": [
      {"measurement": "Inhibition of NS2 autoprotease activity", "setting": "[1]; EDTA 10 mM", "result": "inhibited"}
    ]},
    {"smiles": "Cc1ccc(S(=O)(=O)N[C@@H](Cc2ccccc2)C(=O)CCl)cc1", "note": "[TPCK, Tosyl phenylalanine chloromethyl ketone]", "values": [
      {"measurement": "EC50", "setting": "[1]", "result": 15.3, "unit": "µM"},
      {"measurement": "CC50", "setting": "Huh7 cells", "result": 3.3, "unit": "µM"}
    ]}
  ]
}
